We go through two compounds from EP1331219A1.

Counter-ions that a name gives are not always drawn.

Holding throughout (format): binding, mouse
The subject of test [1] is murine monoclonal antibody 6H5D1C4 (DASM243-6H5D1C4). The test can be described thus: Competition ELISA on BSA-Met1 coated plates: cross reactivity with methamphetamine analogs. The conditions noted are these: methamphetamine recognized more than ecstasy. On the technique in general: An ELISA detects its analyte on a solid surface through an enzyme-linked reagent.
Test [2] addresses murine monoclonal antibody DASM243-6H5D1C4 (IgG2b), raised against TT-Met1. The experiment in a line: RIA: affinity determination by competition between labeled and unlabeled metabolite. The conditions noted are these: purified mAb, calculated by the method of Müller from IC50.
The target in test [3] is murine monoclonal antibody DASM243-A10A6A2 (IgG1), raised against TT-Met1. The test is described as above. Conditions: purified mAb, calculated by the method of Müller from IC50.

For the compound `CN[C@@H](C)Cc1ccccc1` [Methamphetamine, methamphetamine], the “recognition of methamphetamine relative to ecstasy” value in test [1] is given as 10 times.

On to `CNC(C)Cc1ccccc1` (stereo not drawn) [methamphetamine oxalate], for which the Ka in test [2] was 2.58e+08 M⁻¹; in test [3] it was 5.58e+06 M⁻¹.
